# Measured values: patent US8003649B2 (AstraZeneca AB, priority 2007, dated 2011)
# Target: T1, Androgen Receptor (AR) (Homo sapiens, UniProt P10275, T878A)
# T1 construct: cell based immuno-fluorescence assay using the LNCaP prostate epithelial cell line; endogenous in cells; host or cells: LNCaP clone FGC (ATCC CRL-1740)
# T1 sequence (P10275 1-920 T878A): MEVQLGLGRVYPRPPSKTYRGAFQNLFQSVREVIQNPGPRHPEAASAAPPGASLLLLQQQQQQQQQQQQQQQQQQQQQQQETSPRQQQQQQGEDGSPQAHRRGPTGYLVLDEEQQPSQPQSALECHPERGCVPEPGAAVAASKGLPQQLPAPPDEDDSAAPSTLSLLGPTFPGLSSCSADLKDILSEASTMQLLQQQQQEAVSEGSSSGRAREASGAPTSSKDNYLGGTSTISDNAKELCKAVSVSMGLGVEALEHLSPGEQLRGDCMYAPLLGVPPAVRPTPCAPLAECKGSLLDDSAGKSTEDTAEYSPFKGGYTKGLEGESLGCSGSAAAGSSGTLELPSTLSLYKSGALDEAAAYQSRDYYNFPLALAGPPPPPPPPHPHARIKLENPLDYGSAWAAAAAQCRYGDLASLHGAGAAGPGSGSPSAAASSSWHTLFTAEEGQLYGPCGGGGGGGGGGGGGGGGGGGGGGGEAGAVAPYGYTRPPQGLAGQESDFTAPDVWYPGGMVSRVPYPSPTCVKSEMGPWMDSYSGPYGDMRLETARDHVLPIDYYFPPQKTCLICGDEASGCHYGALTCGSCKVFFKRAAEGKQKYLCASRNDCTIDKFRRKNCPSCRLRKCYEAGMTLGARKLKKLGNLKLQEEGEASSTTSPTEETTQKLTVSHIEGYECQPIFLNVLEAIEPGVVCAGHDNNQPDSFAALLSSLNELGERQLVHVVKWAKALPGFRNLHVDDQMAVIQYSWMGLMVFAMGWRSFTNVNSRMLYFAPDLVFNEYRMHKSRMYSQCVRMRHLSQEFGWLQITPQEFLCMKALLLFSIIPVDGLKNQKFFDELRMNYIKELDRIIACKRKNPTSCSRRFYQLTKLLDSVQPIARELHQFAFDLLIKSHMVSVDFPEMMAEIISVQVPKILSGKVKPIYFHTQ
# Assay: LNCaP Androgen Receptor Down-regulation Cell Assay (immunofluorescence end point)
# Format: cell-based
# Details: LNCaP prostate carcinoma cells, compound incubation 20-22 hours, 50% reduction of the AR signal; read-out: Androgen Receptor Down-regulation Assay (a) IC50/μM
# In short: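 LNCaP cells in medium with 5% charcoal-stripped FBS were plated overnight, then treated with a compound dilution series for 20-22 h at 37° C. After fixation, permeabilisation and immunostaining, AR-associated green fluorescence was quantified by laser-scanning microplate cytometry; AR down-regulation expressed as IC50 from fitted dose-response curves.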
row,Structure (SMILES),DC50
1,"CC(C)(c1ccc(F)cc1)N1CCN(c2ccc3nnc(C(F)(F)F)n3n2)CC1 [Example 309, 6-[4-[1-(4-fluorophenyl)-1-methylethyl]piperazin-1-yl]-3-(trifluoromethyl)[1,2,4]triazolo[4,3-b]pyridazine]",1.6 µM
2,"CC(C)c1ccc(CN2CCN(c3ccc4nnc(C(F)(F)F)n4n3)CC2)cc1 [Example 130, 6-[4-[(4-propan-2-ylphenyl)methyl]piperazin-1-yl]-3-(trifluoromethyl)-[1,2,4]triazolo[4,3-b]pyridazine]",1.8 µM
3,O=C(c1cccc(OC2CCN(c3ccc4nnc(C(F)(F)F)n4n3)CC2)c1)N1CCNCC1 [Example 688],6.6 µM
4,"N#Cc1cccc(CN2CCCN(c3ccc4nnc(C(F)(F)F)n4n3)CC2)c1 [Example 171, 3-[[4-[3-(trifluoromethyl)-[1,2,4]triazolo[4,3-b]pyridazin-6-yl]-1,4-diazepan-1-yl]methyl]benzonitrile]",0.62 µM
5,CN(C)CCNC(=O)c1cccc(OC2CCN(c3ccc4nnc(C(F)(F)F)n4n3)CC2)c1 [Example 696],4.2 µM
6,"FC(F)(F)c1cnc(N2CCCN(c3ccc4nnc(C(F)(F)Cl)n4n3)CC2)c(Cl)c1 [Example 351, 3-[chloro(difluoro)methyl]-6-[4-[3-chloro-5-(trifluoromethyl)pyridin-2-yl]-1,4-diazepan-1-yl][1,2,4]triazolo[4,3-b]pyridazine]",1.9 µM
7,"Cn1nccc1CCOc1ccc(N2CCN(c3ccc4nnc(C(F)(F)F)n4n3)CC2)cc1 [Example 514, 6-[4-[4-[2-(1-methyl-1H-pyrazol-5-yl)ethoxy]phenyl]piperazin-1-yl]-3-(trifluoromethyl)[1,2,4]triazolo[4,3-b]pyridazine]",0.87 µM
8,Fc1cccc(OCC2CCN(c3ccc4nnc(C(F)(F)F)n4n3)CC2)c1 [Example 464],1.4 µM
9,CS(=O)(=O)c1ccc(F)cc1CN1CCN(c2ccc3nnc(C(F)F)n3n2)CC1 [Example 819],> 18 µM
10,"Cc1cc(CN2CCN(c3ccc4nnc(C(F)(F)F)n4n3)CC2)oc1C [Example 98, 6-[4-[(4,5-dimethylfuran-2-yl)methyl]piperazin-1-yl]-3-(trifluoromethyl)-[1,2,4]triazolo[4,3-b]pyridazine]",2.3 µM
11,COc1ncccc1CN1CC2CN(c3ccc4nnc(C(F)(F)F)n4n3)CC2C1 (stereo not shown) [Example 788],2.2 µM
12,"FC(F)(F)c1nnc2ccc(N3CCN(Cc4cccc(Br)n4)CC3)nn12 [Example 367, 6-[4-[(6-bromopyridin-2-yl)methyl]piperazin-1-yl]-3-(trifluoromethyl)[1,2,4]triazolo[4,3-b]pyridazine]",4.1 µM
13,FC(F)(F)c1nnc2ccc(N3CCN(Cc4c[nH]c5ccccc45)CC3)cn12 [Example 807],7.5 µM
14,O=S(=O)(c1cccc(F)c1)N1CCCN(c2ccc3nnc(C(F)(F)F)n3n2)CC1 [Example 456],21 µM
15,O=C(NCc1cocn1)c1cccc(OC2CCN(c3ccc4nnc(C(F)(F)F)n4n3)CC2)c1 [Example 707],7.9 µM
16,CN(C)CCOc1ccc(OC2CCN(c3ccc4nnc(C(F)(F)F)n4n3)CC2)cc1 [Example 435],0.98 µM
17,"FC(F)(F)c1ccc(CN2CCCN(c3ccc4nnc(C(F)(F)F)n4n3)CC2)cc1 [Example 168, 3-(trifluoromethyl)-6-[4-[[4-(trifluoromethyl)phenyl]methyl]-1,4-diazepan-1-yl]-[1,2,4]triazolo[4,3-b]pyridazine]",1.6 µM
18,"FC(F)(F)c1nnc2ccc(N3CCN(Cc4ccc(N5CCCC5)cc4)CC3)nn12 [Example 113, 6-[4-[(4-pyrrolidin-1-ylphenyl)methyl]piperazin-1-yl]-3-(trifluoromethyl)-[1,2,4]triazolo[4,3-b]pyridazine]",7.1 µM
19,"COc1ccccc1CN1CCN(c2ccc3nnc(C(F)(F)F)n3n2)CC1 [Example 75, 6-[4-[(2-methoxyphenyl)methyl]piperazin-1-yl]-3-(trifluoromethyl)-[1,2,4]triazolo[4,3-b]pyridazine]",2.3 µM
